From ChEMBL document CHEMBL2434907, “Synthesis and SAR studies of benzimidazolone derivatives as histamine H3-receptor antagonists” (Bioorg Med Chem Lett, 2013)

How the values were obtained:
[1] = target: Histamine H3 receptor (Cavia porcellus, UniProt Q9JI35); experiment: Displacement of [3H]-N-alpha-methyl histamine from histamine H3 receptor in guinea pig brain homogenates; assay type: tissue-based
[2] = target: Cytochrome P450 2D6 (Homo sapiens, UniProt P10635); experiment: Inhibition of CYP2D6 in human liver microsomes; assay type: ADME, Microsome
Chain of Cytochrome P450 2D6 (P10635 whole entry): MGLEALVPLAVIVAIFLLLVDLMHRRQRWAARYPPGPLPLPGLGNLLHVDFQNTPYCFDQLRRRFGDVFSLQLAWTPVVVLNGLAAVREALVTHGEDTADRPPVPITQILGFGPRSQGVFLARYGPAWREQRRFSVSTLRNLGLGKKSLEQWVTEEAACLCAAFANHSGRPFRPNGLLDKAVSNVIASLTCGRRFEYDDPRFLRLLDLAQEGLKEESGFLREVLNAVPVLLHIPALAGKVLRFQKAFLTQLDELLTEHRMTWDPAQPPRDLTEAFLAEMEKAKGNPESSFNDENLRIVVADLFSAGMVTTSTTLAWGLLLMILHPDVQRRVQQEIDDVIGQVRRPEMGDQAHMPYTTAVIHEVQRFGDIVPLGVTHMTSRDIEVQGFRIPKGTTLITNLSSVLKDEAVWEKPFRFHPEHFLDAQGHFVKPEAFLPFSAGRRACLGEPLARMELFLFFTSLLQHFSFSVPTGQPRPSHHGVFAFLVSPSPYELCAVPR

[3] = target: Cytochrome P450 3A4 (Homo sapiens, UniProt P08684); experiment: Inhibition of CYP3A4 in human liver microsomes; assay type: ADME, Microsome
Chain of Cytochrome P450 3A4 (P08684 whole entry): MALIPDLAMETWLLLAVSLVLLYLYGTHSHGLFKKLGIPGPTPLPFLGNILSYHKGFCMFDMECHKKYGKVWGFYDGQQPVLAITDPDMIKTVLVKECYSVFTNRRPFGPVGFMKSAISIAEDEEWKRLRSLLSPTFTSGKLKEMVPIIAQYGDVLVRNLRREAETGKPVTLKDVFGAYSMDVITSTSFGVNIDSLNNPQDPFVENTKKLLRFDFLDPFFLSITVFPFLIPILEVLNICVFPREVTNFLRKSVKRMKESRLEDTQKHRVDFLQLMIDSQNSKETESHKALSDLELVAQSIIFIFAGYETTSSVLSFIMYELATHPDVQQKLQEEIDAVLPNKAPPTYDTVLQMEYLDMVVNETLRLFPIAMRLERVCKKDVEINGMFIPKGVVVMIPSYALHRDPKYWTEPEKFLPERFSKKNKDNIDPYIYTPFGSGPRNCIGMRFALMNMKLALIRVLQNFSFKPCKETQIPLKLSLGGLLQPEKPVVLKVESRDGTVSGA

[4] = AUC in Sprague-Dawley rat at 10 mg/kg, po; assay type: ADME, organism-based; set-up: dose 10 mg/kg, route oral; conditions: plasma
[5] = Plasma concentration in Sprague-Dawley rat at 10 mg/kg, po after 6 hrs; assay type: ADME, organism-based; set-up: dose 10 mg/kg, route oral

Chain of Histamine H3 receptor (Q9JI35 whole entry): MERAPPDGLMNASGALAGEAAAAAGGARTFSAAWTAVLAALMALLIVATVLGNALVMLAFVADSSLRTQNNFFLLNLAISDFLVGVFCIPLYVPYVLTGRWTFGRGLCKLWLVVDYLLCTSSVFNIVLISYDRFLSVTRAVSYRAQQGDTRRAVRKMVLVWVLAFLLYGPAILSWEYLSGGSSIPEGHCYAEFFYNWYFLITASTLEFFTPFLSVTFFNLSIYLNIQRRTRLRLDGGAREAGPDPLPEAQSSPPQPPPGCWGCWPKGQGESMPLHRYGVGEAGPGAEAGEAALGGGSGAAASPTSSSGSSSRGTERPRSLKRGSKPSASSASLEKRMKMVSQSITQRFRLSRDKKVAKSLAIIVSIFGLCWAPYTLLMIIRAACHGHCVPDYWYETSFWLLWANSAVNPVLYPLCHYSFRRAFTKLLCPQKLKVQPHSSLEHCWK

SMILES | Ki [1] | IC50 [2] | IC50 [3] | AUC [4] | concentration at 6 h [5]
Nc1cc(CN2CCC(C(=O)N3CCC(n4c(=O)n(Cc5ccc(Cl)cc5)c5ccccc54)CC3)CC2)ccn1 | 0.012 µM | – | – | – | –
Nc1cc(CN2CCC(C(=O)N3CCC(n4c(=O)n(Cc5ccccc5)c5cc(F)ccc54)CC3)CC2)ccn1 | 0.006 µM | – | – | – | –
Nc1cc(CN2CCC(C(=O)N3CCC(n4c(=O)[nH]c5ccccc54)CC3)CC2)ccn1 | 0.0006 µM | > 30 µM | > 30 µM | – | –
Nc1cc(CN2CCC(C(=O)N3CCC(n4c(=O)n(CCCC(F)(F)F)c5ccccc54)CC3)CC2)ccn1 | – | > 30 µM | > 30 µM | – | –
CC(c1ccc(Cl)c(Cl)c1)n1c(=O)n(C2CCN(C(=O)C3CCN(Cc4ccnc(N)c4)CC3)CC2)c2ccccc21 (stereo unspecified) | 0.077 µM | – | – | – | –
CC(c1ccc(-c2ccc(F)cc2)cc1)n1c(=O)n(C2CCN(C(=O)C3CCN(Cc4ccnc(N)c4)CC3)CC2)c2ccccc21 (stereo unspecified) | 0.42 µM | – | – | – | –
COCCn1c(=O)n(C2CCN(C(=O)C3CCN(Cc4ccnc(N)c4)CC3)CC2)c2ccccc21 | – | > 30 µM | > 30 µM | 0.1 µM·h | –
Nc1cc(CN2CCC(C(=O)N3CCC(n4c(=O)n(CCN5CCOCC5)c5ccccc54)CC3)CC2)ccn1 | – | > 30 µM | 30 µM | – | –
Nc1cc(CN2CCC(C(=O)N3CCC(n4c(=O)n(CCN5CCOCC5)c5cc(F)ccc54)CC3)CC2)ccn1 | 0.0023 µM | > 30 µM | > 30 µM | – | –
Nc1cc(CN2CCC(C(=O)N3CCC(n4c(=O)n(CCCC(F)(F)F)c5cc(F)ccc54)CC3)CC2)ccn1 | – | > 30 µM | 30 µM | 4.1 µM·h | 510 nM
CC(C)Cn1c(=O)n(C2CCN(C(=O)C3CCN(Cc4ccnc(N)c4)CC3)CC2)c2ccc(F)cc21 | – | > 30 µM | > 30 µM | – | –
Nc1cc(CN2CCC(C(=O)N3CCC(n4c(=O)n(CC(F)(F)F)c5cc(F)ccc54)CC3)CC2)ccn1 | – | > 30 µM | > 30 µM | 1.2 µM·h | 130 nM
Nc1cc(CN2CCC(C(=O)N3CCC(n4c(=O)n(CC5CC5)c5cc(F)ccc54)CC3)CC2)ccn1 | – | > 30 µM | 30 µM | 3.5 µM·h | 260 nM
Nc1cc(CN2CCC(C(=O)N3CCC(n4c(=O)n(C5CCCC5)c5cc(F)ccc54)CC3)CC2)ccn1 | – | > 30 µM | 22 µM | 1.8 µM·h | 200 nM
Nc1cc(CN2CCC(C(=O)N3CCC(n4c(=O)n(CC5CCCCC5)c5cc(F)ccc54)CC3)CC2)ccn1 | – | > 30 µM | > 30 µM | – | –
Nc1cc(CN2CCC(C(=O)N3CCC(n4c(=O)n(-c5ccc(F)c(F)c5)c5cc(F)ccc54)CC3)CC2)ccn1 | – | > 30 µM | > 30 µM | 5.1 µM·h | 680 nM
Nc1cc(CN2CCC(C(=O)N3CCC(n4c(=O)n(-c5cc(F)cc(F)c5)c5cc(F)ccc54)CC3)CC2)ccn1 | – | > 30 µM | > 30 µM | 12.9 µM·h | 1850 nM
Nc1cc(CN2CCC(C(=O)N3CCC(n4c(=O)n(-c5ccccn5)c5cc(F)ccc54)CC3)CC2)ccn1 | – | > 30 µM | > 30 µM | 10.9 µM·h | 1200 nM
Nc1cc(CN2CCC(C(=O)N3CCC(n4c(=O)n(-c5ncccn5)c5cc(F)ccc54)CC3)CC2)ccn1 | – | > 30 µM | > 30 µM | – | –
Nc1cc(CN2CCC(C(=O)N3CCC(n4c(=O)n(-c5cnccn5)c5cc(F)ccc54)CC3)CC2)ccn1 | 0.0005 µM | > 30 µM | > 30 µM | 3.7 µM·h | 500 nM
